Measured values from the NIST ThermoML archive (doi:10.1021/je0501843).

Assay: molar heat capacity at constant volume; wn = mass fraction of the nth substance listed
Conditions: Fluid (supercritical or subcritical phases), Vacuum adiabatic calorimetry, w1 = 0.5001

FC(F)C(F)(F)F [pentafluoroethane] + FCF
Conditions	molar heat capacity at constant volume [J/K/mol]
363 K, 13894 kPa	70.07
364 K, 6970 kPa	80.93
364 K, 7223 kPa	79.29
364 K, 7494 kPa	80.29
364 K, 7828 kPa	75.98
364 K, 10192 kPa	72.66
364 K, 14207 kPa	69.59
365 K, 7077 kPa	80.93
365 K, 7344 kPa	79.26
365 K, 7632 kPa	79.75
365 K, 7982 kPa	75.67
365 K, 10427 kPa	72.54
365 K, 14520 kPa	69.04
366 K, 7184 kPa	80.58
366 K, 7465 kPa	80.45
366 K, 7771 kPa	80.4
366 K, 8137 kPa	76.08
366 K, 10664 kPa	73.17
366 K, 14835 kPa	69.94
367 K, 7291 kPa	80.32
367 K, 7587 kPa	79.46
367 K, 7907 kPa	79.31
367 K, 8294 kPa	74.79
367 K, 10900 kPa	72.03
367 K, 15148 kPa	69.1
368 K, 7397 kPa	79.17
368 K, 7708 kPa	77.58
368 K, 8044 kPa	77.88
368 K, 8449 kPa	74.12
368 K, 11133 kPa	71.25
368 K, 15462 kPa	68.32
369 K, 7504 kPa	79.62
369 K, 7831 kPa	78.35
369 K, 8183 kPa	78.65
369 K, 8605 kPa	76.18
369 K, 11369 kPa	72.83
369 K, 15777 kPa	69.74
370 K, 7612 kPa	79.45
370 K, 7953 kPa	77.86
370 K, 8323 kPa	77.55
370 K, 8762 kPa	76.14
370 K, 11608 kPa	72.92
370 K, 16094 kPa	69.84
371 K, 7719 kPa	78.97
371 K, 8075 kPa	77.56
371 K, 8460 kPa	76.45
371 K, 8917 kPa	74.86
371 K, 11844 kPa	72.52
371 K, 16410 kPa	69.31
372 K, 7825 kPa	78.44
372 K, 8198 kPa	77.29
372 K, 8601 kPa	75.95
372 K, 9073 kPa	74.57
372 K, 12081 kPa	71.78
372 K, 16724 kPa	69.08
373 K, 7931 kPa	77.94
373 K, 8321 kPa	76.93
373 K, 8740 kPa	76.42
373 K, 9230 kPa	74.03
373 K, 12318 kPa	72.32
373 K, 17037 kPa	69.04
374 K, 8039 kPa	79.02
374 K, 8445 kPa	77.8
374 K, 8878 kPa	77.52
374 K, 9389 kPa	74.39
374 K, 12556 kPa	73.35
374 K, 17355 kPa	69.94
375 K, 8147 kPa	78.2
375 K, 8567 kPa	75.61
375 K, 9016 kPa	76.25
375 K, 9544 kPa	73.41
375 K, 12795 kPa	71.55
375 K, 17669 kPa	69.58
376 K, 8254 kPa	77.5
376 K, 8690 kPa	75.69
376 K, 9155 kPa	75.06
376 K, 9701 kPa	73.09
376 K, 13033 kPa	71.53
376 K, 17984 kPa	69.16
377 K, 8362 kPa	78.12
377 K, 8813 kPa	76.87
377 K, 9295 kPa	76.67
377 K, 9858 kPa	74.31
377 K, 13272 kPa	72.67
377 K, 18301 kPa	69.67
378 K, 8469 kPa	77.78
378 K, 8937 kPa	76.5
378 K, 9437 kPa	77.01
378 K, 10018 kPa	74.83
378 K, 13511 kPa	71.98
378 K, 18619 kPa	69.86
379 K, 8575 kPa	76.76
379 K, 9060 kPa	75.82
379 K, 9576 kPa	76.42
379 K, 10174 kPa	74.57
379 K, 13747 kPa	71.87
379 K, 18935 kPa	70.14
380 K, 8683 kPa	76.61
380 K, 9183 kPa	75.69
380 K, 9715 kPa	75.6
380 K, 10331 kPa	73.35
380 K, 13988 kPa	71.55
381 K, 8790 kPa	77.44
381 K, 9306 kPa	77.28
381 K, 9856 kPa	75.26
381 K, 10492 kPa	73.9
381 K, 14227 kPa	72.04
382 K, 8897 kPa	78.41
382 K, 9432 kPa	76.92
382 K, 9996 kPa	76.48
382 K, 10651 kPa	74.52
382 K, 14466 kPa	72.98
383 K, 9005 kPa	77.33
383 K, 9553 kPa	75.97
383 K, 10136 kPa	75.35
383 K, 10808 kPa	74.44
383 K, 14706 kPa	72.4
384 K, 9112 kPa	76.6
384 K, 9679 kPa	76.51
384 K, 10277 kPa	75.34
384 K, 10967 kPa	74.6
384 K, 14944 kPa	71.93
385 K, 9219 kPa	77.25
385 K, 9804 kPa	75.82
385 K, 10418 kPa	76.16
385 K, 11125 kPa	74.07
385 K, 15188 kPa	72.26
386 K, 9326 kPa	78.28
386 K, 9929 kPa	76.35
386 K, 10558 kPa	76.6
386 K, 11283 kPa	75.16
386 K, 15426 kPa	73.47
387 K, 9434 kPa	77.16
387 K, 10051 kPa	76.61
387 K, 10699 kPa	76.14
387 K, 11442 kPa	74.89
387 K, 15666 kPa	72.66
388 K, 9540 kPa	76.32
388 K, 10174 kPa	74.86
388 K, 10840 kPa	75.57
388 K, 11602 kPa	73.37
388 K, 15904 kPa	71.19
389 K, 9649 kPa	77.31
389 K, 10296 kPa	75.87
389 K, 10980 kPa	76.71
389 K, 11761 kPa	73.84
389 K, 16147 kPa	71.61
390 K, 9756 kPa	77.57
390 K, 10421 kPa	77.3
390 K, 11124 kPa	76.88
390 K, 11922 kPa	75.02
390 K, 16388 kPa	72.19
391 K, 9862 kPa	77.21
391 K, 10547 kPa	76.53
391 K, 11263 kPa	76.5
391 K, 12081 kPa	74.96
391 K, 16627 kPa	71.79
392 K, 9969 kPa	77.4
392 K, 10670 kPa	75.59
392 K, 11403 kPa	75.77
392 K, 12239 kPa	73.58
392 K, 16868 kPa	71.21
393 K, 10077 kPa	78.13
393 K, 10795 kPa	76.57
393 K, 11546 kPa	75.66
393 K, 12400 kPa	74.26
393 K, 17110 kPa	71.47
394 K, 10185 kPa	78.09
394 K, 10920 kPa	77.19
394 K, 11688 kPa	76.6
394 K, 12560 kPa	75.24
394 K, 17351 kPa	71.82
395 K, 10292 kPa	77.54
395 K, 11045 kPa	76.74
395 K, 11829 kPa	75.92
395 K, 12720 kPa	73.89
395 K, 17590 kPa	71.67
396 K, 10400 kPa	77.68
396 K, 11168 kPa	76.85
396 K, 11972 kPa	76.16
396 K, 12880 kPa	73.78
396 K, 17831 kPa	71.16
397 K, 10508 kPa	78.41
397 K, 11292 kPa	76.06
397 K, 12113 kPa	76.4
397 K, 13040 kPa	74.36
397 K, 18073 kPa	71.18
398 K, 10616 kPa	78.25
398 K, 11415 kPa	76.66
398 K, 12256 kPa	75.92
398 K, 13199 kPa	74.81
398 K, 18315 kPa	72.43
399 K, 10723 kPa	77.16
399 K, 11538 kPa	76.8
399 K, 12395 kPa	76.53
399 K, 13361 kPa	74.08
399 K, 18556 kPa	72.11
